{"source": "paper PMC5218480", "about": "(PLoS ONE, 2017)", "system": "MV-4-11 cells", "assay": "Gene expression microarray analysis (Affymetrix PrimeView) and GSEA", "type": "cell-based, human", "design": "RFU PODN (11730768_x_at) / Fold change /veh PODN (11730768_x_at) / RFU LINC00158 (11744669_a_at) / Fold change /veh LINC00158 (11744669_a_at) / RFU DUSP10 (11751237_a_at) / Fold change /veh DUSP10 (11751237_a_at) / RFU ID3 (11757404_x_at) / Fold change /veh ID3 (11757404_x_at) / RFU PLEKHG5 (11737974_s_at) / Fold change /veh PLEKHG5 (11737974_s_at) / RFU LRRC4B (11730491_at) / Fold change /veh LRRC4B (11730491_at) / RFU GIMAP4 (11747438_a_at) / Fold change /veh GIMAP4 (11747438_a_at) / RFU KRT8 (11758183_x_at) / Fold change /veh KRT8 (11758183_x_at) / RFU CNN1 (11734310_a_at) / Fold change /veh CNN1 (11734310_a_at) / RFU VPS37D (11726825_at) / Fold change /veh VPS37D (11726825_at) / RFU C10orf10 (11716522_x_at) / Fold change /veh C10orf10 (11716522_x_at) / RFU KIR2DL2 /// KIR2DL4 /// KIR2DL5A /// KIR2DL5B /// KIR2DS1 /// KIR2DS2 /// KIR2DS3 /// KIR2DS4 /// KIR3DL3 /// KIR3DL3 /// KIR3DS1 (11738374_at) / Fold change /veh KIR2DL2 /// KIR2DL4 /// KIR2DL5A /// KIR2DL5B /// KIR2DS1 /// KIR2DS2 /// KIR2DS3 /// KIR2DS4 /// KIR3DL3 /// KIR3DL3 /// KIR3DS1 (11738374_at) / RFU C1QL1 (11718748_at) / Fold change /veh C1QL1 (11718748_at) / RFU TMPRSS4 (11747572_a_at) / Fold change /veh TMPRSS4 (11747572_a_at) / RFU HAMP (11756126_x_at) / Fold change /veh HAMP (11756126_x_at) / RFU RNFT2 (11725882_a_at) / Fold change /veh RNFT2 (11725882_a_at) / RFU NR4A2 (11747474_a_at) / Fold change /veh NR4A2 (11747474_a_at) / RFU ABCC12 (11746883_a_at) / Fold change /veh ABCC12 (11746883_a_at) / RFU TMEM136 (11760407_x_at) / Fold change /veh TMEM136 (11760407_x_at) / RFU CLDN22 /// WWC2 (11732394_at) / Fold change /veh CLDN22 /// WWC2 (11732394_at) / RFU HLA-DPB1 (11760878_x_at) / Fold change /veh HLA-DPB1 (11760878_x_at) / RFU SPINT1 (11716480_a_at) / Fold change /veh SPINT1 (11716480_a_at) / RFU GAP43 (11754022_s_at) / Fold change /veh GAP43 (11754022_s_at) / RFU A4GNT (11735810_at) / Fold change /veh A4GNT (11735810_at) / RFU PRB3 (11715151_x_at) / Fold change /veh PRB3 (11715151_x_at) / RFU TUBB4B (11761932_at) / Fold change /veh TUBB4B (11761932_at) / RFU CAPN14 (11732068_a_at) / Fold change /veh CAPN14 (11732068_a_at) / RFU TMCC2 (11721928_a_at) / Fold change /veh TMCC2 (11721928_a_at) / RFU IRGQ (11745062_a_at) / Fold change /veh IRGQ (11745062_a_at) / RFU FAM174B (11720279_a_at) / Fold change /veh FAM174B (11720279_a_at) / RFU TMPRSS4 (11748680_a_at) / Fold change /veh TMPRSS4 (11748680_a_at) / RFU FAM212B (11763350_a_at) / Fold change /veh FAM212B (11763350_a_at) / RFU PLEKHG5 (11743358_a_at) / Fold change /veh PLEKHG5 (11743358_a_at) / RFU ZSCAN30 (11745921_a_at) / Fold change /veh ZSCAN30 (11745921_a_at) / RFU CMKLR1 (11741424_a_at) / Fold change /veh CMKLR1 (11741424_a_at) / RFU LOC101060620 /// MAPK8IP1 (11723275_at) / Fold change /veh LOC101060620 /// MAPK8IP1 (11723275_at) / RFU SPTSSB (11747773_x_at) / Fold change /veh SPTSSB (11747773_x_at) / RFU PRSS12 (11739890_at) / Fold change /veh PRSS12 (11739890_at) / RFU BIN1 (11741810_x_at) / Fold change /veh BIN1 (11741810_x_at) / RFU WNT11 (11732464_a_at) / Fold change /veh WNT11 (11732464_a_at) / RFU C10orf10 (11716521_a_at) / Fold change /veh C10orf10 (11716521_a_at) / RFU C5orf56 (11738089_at) / Fold change /veh C5orf56 (11738089_at) / RFU CYB561 (11721691_x_at) / Fold change /veh CYB561 (11721691_x_at) / RFU ANKRD19P (11752326_a_at) / Fold change /veh ANKRD19P (11752326_a_at) / RFU OR2T12 /// OR2T33 /// OR2T8 (11738714_s_at) / Fold change /veh OR2T12 /// OR2T33 /// OR2T8 (11738714_s_at) / RFU VCAN (11748164_a_at) / Fold change /veh VCAN (11748164_a_at) / RFU JSRP1 (11732532_at) / Fold change /veh JSRP1 (11732532_at) / RFU KRTAP10-11 (11738290_x_at) / Fold change /veh KRTAP10-11 (11738290_x_at) / RFU MYO3A (11730013_a_at) / Fold change /veh MYO3A (11730013_a_at) / RFU EBF3 (11725865_a_at) / Fold change /veh EBF3 (11725865_a_at) / RFU CAMK2N1 (11719241_x_at) / Fold change /veh CAMK2N1 (11719241_x_at) / RFU C5orf56 (11738088_a_at) / Fold change /veh C5orf56 (11738088_a_at) / RFU OLFML3 (11715873_a_at) / Fold change /veh OLFML3 (11715873_a_at) / RFU LOC100653217 /// NTM (11731650_a_at) / Fold change /veh LOC100653217 /// NTM (11731650_a_at) / RFU MAPK11 (11762145_a_at) / Fold change /veh MAPK11 (11762145_a_at) / RFU FIZ1 (11724087_x_at) / Fold change /veh FIZ1 (11724087_x_at) / RFU OASL (11726364_x_at) / Fold change /veh OASL (11726364_x_at) / RFU SOX15 (11748057_x_at) / Fold change /veh SOX15 (11748057_x_at) / RFU CD79A (11719716_a_at) / Fold change /veh CD79A (11719716_a_at) / RFU HIST1H1D (11736915_at) / Fold change /veh HIST1H1D (11736915_at) / RFU CASKIN2 (11723855_a_at) / Fold change /veh CASKIN2 (11723855_a_at) / RFU LOC730098 (11760151_x_at) / Fold change /veh LOC730098 (11760151_x_at) / RFU OR4N2 (11742367_at) / Fold change /veh OR4N2 (11742367_at) / RFU PRRT2 (11749266_a_at) / Fold change /veh PRRT2 (11749266_a_at) / RFU SNX32 (11753110_a_at) / Fold change /veh SNX32 (11753110_a_at) / RFU CDHR5 (11726645_a_at) / Fold change /veh CDHR5 (11726645_a_at) / RFU RCAN1 (11760418_a_at) / Fold change /veh RCAN1 (11760418_a_at) / RFU FAM167A (11723789_a_at) / Fold change /veh FAM167A (11723789_a_at) / RFU FAM26E (11764081_at) / Fold change /veh FAM26E (11764081_at) / RFU ISYNA1 (11749810_s_at) / Fold change /veh ISYNA1 (11749810_s_at) / RFU ACY1 (11761880_at) / Fold change /veh ACY1 (11761880_at) / RFU 11764098_at / Fold change /veh 11764098_at / RFU SAMD14 (11745864_x_at) / Fold change /veh SAMD14 (11745864_x_at) / RFU NPB (11741838_a_at) / Fold change /veh NPB (11741838_a_at) / RFU TMPRSS6 (11731388_a_at) / Fold change /veh TMPRSS6 (11731388_a_at) / RFU KRTAP10-2 (11738614_at) / Fold change /veh KRTAP10-2 (11738614_at) / RFU ARHGAP8 /// PRR5-ARHGAP8 (11727945_x_at) / Fold change /veh ARHGAP8 /// PRR5-ARHGAP8 (11727945_x_at) / RFU KRTAP5-7 /// NADSYN1 (11734609_at) / Fold change /veh KRTAP5-7 /// NADSYN1 (11734609_at) / RFU RASL12 (11751679_a_at) / Fold change /veh RASL12 (11751679_a_at) / RFU CDKN2B (11736163_a_at) / Fold change /veh CDKN2B (11736163_a_at) / RFU PRF1 (11729649_at) / Fold change /veh PRF1 (11729649_at) / RFU, ZNF638 /// ZNF638-IT1 / Fold change vs veh, ZNF638 /// ZNF638-IT1 / RFU, PANK3 / Fold change vs veh, PANK3 / RFU, SH3YL1 / Fold change vs veh, SH3YL1 / RFU, ZEB2 / Fold change vs veh, ZEB2 / RFU, NRIP1 / Fold change vs veh, NRIP1 / RFU, PTTG1IP / Fold change vs veh, PTTG1IP / RFU, CAPN2 / Fold change vs veh, CAPN2 / RFU, MED14 / Fold change vs veh, MED14 / RFU, SNORA58 / Fold change vs veh, SNORA58 / RFU, C1orf63 / Fold change vs veh, C1orf63 / RFU, LRRFIP1 / Fold change vs veh, LRRFIP1 / RFU, NDUFAF7 / Fold change vs veh, NDUFAF7 / RFU, SLC12A2 / Fold change vs veh, SLC12A2 / RFU, IBTK / Fold change vs veh, IBTK / RFU, ESF1 / Fold change vs veh, ESF1 / Fold change vs veh, TMEM50B / RFU, TAOK1 / Fold change vs veh, TAOK1 / RFU, ACBD3 / Fold change vs veh, ACBD3 / RFU, TMA16 / Fold change vs veh, TMA16 / RFU, RWDD3 / Fold change vs veh, RWDD3 / RFU, BCAT1 / Fold change vs veh, BCAT1 / RFU, EDEM3 / Fold change vs veh, EDEM3 / RFU, TMEM33 / Fold change vs veh, TMEM33 / RFU, WDR75 / Fold change vs veh, WDR75 / RFU, AHCTF1 / Fold change vs veh, AHCTF1 / RFU, TFRC / Fold change vs veh, TFRC / RFU, ZDHHC17 / Fold change vs veh, ZDHHC17 / RFU, NOM1 / Fold change vs veh, NOM1 / RFU, ARL8B / Fold change vs veh, ARL8B / RFU, ZBTB11 / Fold change vs veh, ZBTB11 / RFU, TAMM41 / Fold change vs veh, TAMM41 / RFU, KIAA1704 /// LOC100996395 / Fold change vs veh, KIAA1704 /// LOC100996395 / RFU, ING1 / Fold change vs veh, ING1 / RFU, TRMT61B / Fold change vs veh, TRMT61B / RFU, FUBP3 / Fold change vs veh, FUBP3 / RFU, TP53 / Fold change vs veh, TP53 / RFU, TNKS2 / Fold change vs veh, TNKS2 / RFU, ZFP14 / Fold change vs veh, ZFP14 / RFU, ACTR2 / Fold change vs veh, ACTR2 / RFU, PPP3R1 / Fold change vs veh, PPP3R1 / RFU, PIK3R1 / Fold change vs veh, PIK3R1 / RFU, HNRNPA1 / Fold change vs veh, HNRNPA1 / RFU, RNF170 / Fold change vs veh, RNF170 / RFU, ZNF28 / Fold change vs veh, ZNF28 / RFU, RNGTT / Fold change vs veh, RNGTT / RFU, OGT / Fold change vs veh, OGT / RFU, BRD1 / Fold change vs veh, BRD1 / RFU, MARS / Fold change vs veh, MARS / RFU, ZNF655 / Fold change vs veh, ZNF655 / RFU, FAHD1 / Fold change vs veh, FAHD1 / RFU, BDP1 / Fold change vs veh, BDP1 / RFU, LRRCC1 / Fold change vs veh, LRRCC1 / RFU, ARID1A / Fold change vs veh, ARID1A / RFU, ZNF146 / Fold change vs veh, ZNF146 / RFU, ZNF330 / Fold change vs veh, ZNF330 / RFU, GPN3 / Fold change vs veh, GPN3 / RFU, C9orf123 / Fold change vs veh, C9orf123 / RFU, N4BP2L2 / Fold change vs veh, N4BP2L2 / RFU, ARFIP1 / Fold change vs veh, ARFIP1 / RFU, FAM179B / Fold change vs veh, FAM179B / RFU, BCL10 / Fold change vs veh, BCL10 / RFU, UHRF1BP1L / Fold change vs veh, UHRF1BP1L / RFU, BET1 / Fold change vs veh, BET1 / RFU, CNOT2 / Fold change vs veh, CNOT2 / RFU, ZNF268 / Fold change vs veh, ZNF268 / Fold change vs veh, ZNF507 / RFU, DGCR2 / Fold change vs veh, DGCR2 / RFU, WDSUB1 / Fold change vs veh, WDSUB1 / Fold change vs veh, HSP90B1 /// MIR3652 / RFU, ADSS / Fold change vs veh, ADSS / RFU, GK / Fold change vs veh, GK / RFU, ZNF148 / Fold change vs veh, ZNF148 / RFU, TAF9 / Fold change vs veh, TAF9 / RFU, SLC1A5 / Fold change vs veh, SLC1A5 / RFU, SLMO2 / Fold change vs veh, SLMO2 / RFU, ABCC4 / Fold change vs veh, ABCC4 / RFU, LOC101060439 /// RAP1B / Fold change vs veh, LOC101060439 /// RAP1B / RFU, RFX7 / Fold change vs veh, RFX7 / RFU, GTPBP10 / Fold change vs veh, GTPBP10 / RFU, CNEP1R1 / Fold change vs veh, CNEP1R1 / RFU, BIVM-ERCC5 /// ERCC5 / Fold change vs veh, BIVM-ERCC5 /// ERCC5 / RFU, ILF3 / Fold change vs veh, ILF3 / RFU 11762660_at / Fold change /veh 11762660_at / RFU VCAN (11757783_s_at) / Fold change /veh VCAN (11757783_s_at) / RFU DDX43 (11728927_at) / Fold change /veh DDX43 (11728927_at) / RFU KRT8 (11758188_x_at) / Fold change /veh KRT8 (11758188_x_at) / RFU NKD1 (11759106_at) / Fold change /veh NKD1 (11759106_at) / RFU SRD5A1 (11742802_a_at) / Fold change /veh SRD5A1 (11742802_a_at) / RFU TPSAB1 /// TPSB2 (11721975_s_at) / Fold change /veh TPSAB1 /// TPSB2 (11721975_s_at) / RFU GSTM3 (11746129_a_at) / Fold change /veh GSTM3 (11746129_a_at) / RFU IL23R (11737362_x_at) / Fold change /veh IL23R (11737362_x_at) / RFU TMEM51 (11727254_a_at) / Fold change /veh TMEM51 (11727254_a_at) / RFU PIWIL2 (11732686_x_at) / Fold change /veh PIWIL2 (11732686_x_at) / RFU ORM1 (11744905_x_at) / Fold change /veh ORM1 (11744905_x_at) / RFU CCDC152 (11743942_at) / Fold change /veh CCDC152 (11743942_at) / RFU ECM1 (11717891_a_at) / Fold change /veh ECM1 (11717891_a_at) / RFU IL23R (11748794_a_at) / Fold change /veh IL23R (11748794_a_at) / RFU TNFAIP8L3 (11732012_x_at) / Fold change /veh TNFAIP8L3 (11732012_x_at) / RFU MBOAT4 (11741988_at) / Fold change /veh MBOAT4 (11741988_at) / RFU 11764193_at / Fold change /veh 11764193_at / RFU TMEM53 (11763286_at) / Fold change /veh TMEM53 (11763286_at) / RFU MAGEB2 (11727129_at) / Fold change /veh MAGEB2 (11727129_at) / RFU TMEM200A (11744735_a_at) / Fold change /veh TMEM200A (11744735_a_at) / RFU CCDC152 (11751479_a_at) / Fold change /veh CCDC152 (11751479_a_at) / RFU FAM211A (11726209_a_at) / Fold change /veh FAM211A (11726209_a_at) / RFU RGS16 (11746705_a_at) / Fold change /veh RGS16 (11746705_a_at) / RFU VCAN (11755009_s_at) / Fold change /veh VCAN (11755009_s_at) / RFU RHOB (11743442_s_at) / Fold change /veh RHOB (11743442_s_at) / RFU RGS16 (11720943_a_at) / Fold change /veh RGS16 (11720943_a_at) / RFU RGS16 (11720944_at) / Fold change /veh RGS16 (11720944_at) / RFU, VPS4B / Fold change vs veh, VPS4B / RFU, CREB1 / Fold change vs veh, CREB1 / RFU, DNAJC13 / Fold change vs veh, DNAJC13 / RFU, GNAQ / Fold change vs veh, GNAQ / RFU, CDK5R1 / Fold change vs veh, CDK5R1 / RFU, ZRANB3 / Fold change vs veh, ZRANB3 / RFU, CUL4A / Fold change vs veh, CUL4A / RFU, CCNY / Fold change vs veh, CCNY / RFU, UFL1 / Fold change vs veh, UFL1 / RFU, COG3 / Fold change vs veh, COG3 / RFU, DIAPH2 / Fold change vs veh, DIAPH2 / RFU, SKA2 / Fold change vs veh, SKA2 / RFU, AFF3 / Fold change vs veh, AFF3 / RFU, LMF1 / Fold change vs veh, LMF1 / RFU, IPO11 / Fold change vs veh, IPO11 / RFU, DFFB / Fold change vs veh, DFFB / RFU, FOXP1 / Fold change vs veh, FOXP1 / RFU, CARD8 / Fold change vs veh, CARD8 / RFU, STRN3 / Fold change vs veh, STRN3 / RFU, ADK / Fold change vs veh, ADK / RFU, RASSF2 / Fold change vs veh, RASSF2 / RFU, WIPF1 / Fold change vs veh, WIPF1 / RFU, LARP1B / Fold change vs veh, LARP1B / RFU, RASA1 / Fold change vs veh, RASA1 / RFU, RB1 / Fold change vs veh, RB1 / RFU, PPFIA1 / Fold change vs veh, PPFIA1 / RFU, MAT2A / Fold change vs veh, MAT2A / RFU, CCT5 / Fold change vs veh, CCT5 / RFU, WDR92 / Fold change vs veh, WDR92 / RFU, CUX1 / Fold change vs veh, CUX1 / RFU, TTC7A / Fold change vs veh, TTC7A / RFU, TMEM135 / Fold change vs veh, TMEM135 / RFU, DEPTOR / Fold change vs veh, DEPTOR / RFU, CPM / Fold change vs veh, CPM / RFU, DNAJB6 / Fold change vs veh, DNAJB6 / RFU, CACNA2D3 / Fold change vs veh, CACNA2D3 / RFU, DTX4 / Fold change vs veh, DTX4 / RFU, TFCP2 / Fold change vs veh, TFCP2 / RFU, GMCL1 /// GMCL1P1 / Fold change vs veh, GMCL1 /// GMCL1P1 / RFU, AEBP2 / Fold change vs veh, AEBP2 / RFU, SNHG1 /// SNORD22 /// SNORD25 /// SNORD26 /// SNORD27 /// SNORD28 /// SNORD29 /// SNORD31 / Fold change vs veh, SNHG1 /// SNORD22 /// SNORD25 /// SNORD26 /// SNORD27 /// SNORD28 /// SNORD29 /// SNORD31 / Fold change (Aza/veh), C12orf56 (ProbeSet 11735607_a_at) / Fold change (ACY-1035/veh), C12orf56 (ProbeSet 11735607_a_at) / Fold change (Aza/veh), FGFR1OP (ProbeSet 11751329_s_at) / Fold change (ACY-1035/veh), FGFR1OP (ProbeSet 11751329_s_at) / Fold change (Aza/veh), VPS36 (ProbeSet 11739960_a_at) / Fold change (ACY-1035/veh), VPS36 (ProbeSet 11739960_a_at) / RFU SYPL1 (11715823_x_at) / Fold change /veh SYPL1 (11715823_x_at) / RFU IGFBP7 (11715501_s_at) / Fold change /veh IGFBP7 (11715501_s_at) / RFU REEP3 (11722064_at) / Fold change /veh REEP3 (11722064_at) / RFU IGLL1 (11728026_x_at) / Fold change /veh IGLL1 (11728026_x_at): dose or concentration left out as unconfirmed", "settings": "ProbeSet 11744854_x_at; LIST B", "data": [{"molecule": "Nc1ncn([C@@H]2O[C@H](CO)[C@@H](O)[C@H]2O)c(=O)n1", "note": "[azacitidine]", "values": [{"measurement": "RFU, ZNF28", "result": 60.82, "unit": "RFU"}]}]}
